Laboratory results taken from patent US12318452B2, “Degraders of WEE1 kinase” (DANA-FARBER CANCER INSTITUTE, INC., priority 2018, dated 2025).

Tested on: BT549 and HCC1806 cells
Experiment: Image-based cell cycle assay in TNBC cell lines
Settings: data not shown
Description: HCC1806, BT549, and Kuramochi cells were maintained in RPMI (Corning®, Corning, NY) supplemented with 10% fetal bovine serum (FBS) (Life Technologies™, Carlsbad, CA) and 1% penicillin/streptomycin (Corning, Corning®, NY). OVCAR8 cells were maintained as above with the addition of 2 mM L-glutamine (Life Technologies™, Carlsbad, CA). MCF10A cells were maintained in a 1:1 mix of DMEM:F12 supplemented with 5% horse serum (Life Technologies™ Carlsbad, CA), 1% penicillin/streptomycin (Corning®, Corning, NY), 20 ng/ml EGF (Peprotech®, Rocky Hill, NJ), 500 ng/ml hydrocortisone (Sigma-Aldrich®, St. Louis, MO), 10 μg/ml insulin (Sigma-Aldrich®, St. Louis, MO), and 100 ng/ml cholera toxin (Sigma-Aldrich®, St. Louis, MO). COV362 cells were maintained in DMEM (Corning®, Corning, NY) supplemented with 10% FBS (Life Technologies™, Carlsbad, CA), 1% penicillin/streptomycin (Corning®, Corning, NY) and 2 mM L-glutamine (Life Technologies™, Carlsbad, CA). The OCE1 cells were maintained in FOMI (Wit-Fo) (PMID: 24303006) supplemented with 25 ng/ml cholera toxin (Sigma-Aldrich®, St. Louis, MO). […]
Fixed cells were imaged with a 10× objective using an Operetta microscope and analyzed using the Columbus image data storage and analysis system (PerkinElmer®, Waltham, MA). […] The average LDR, EdU and phospho-histone H3 intensities within the nuclear masks were determined. […]

Structure (SMILES): C=CCn1c(=O)c2cnc(Nc3ccc(N4CCN(CCCNc5cccc6c5C(=O)N(C5CCC(=O)NC5=O)C6=O)CC4)cc3)nc2n1-c1cccc(C(C)(C)O)n1 (stereo not shown) [Compound 13, 4-((3-(4-(4-((2-allyl-1-(6-(2-hydroxypropan-2-yl)pyridin-2-yl)-3-oxo-2,3-dihydro-1H-pyrazolo[3,4-d]pyrimidin-6-yl)amino)phenyl)piperazin-1-yl)propyl)amino)-2-(2,6-dioxopiperidin-3-yl)isoindoline-1,3-dione]
- Changes in mitotic cell number: greater changes in mitotic cell number than AZD1775
